These results are taken from patent publication US20040033941A1, “Immunosuppression using piceatannol and a calcineurin inhibitor” (priority 2003, published 2004).

Entries after “also recorded” stand apart in the source; their conditions may differ.

For data set [1], the system named is Syk kinase. As to conditions: J. Oliver et al., J. Biol. Chem. 1994; mast cell/allergy studies; cited from earlier work.
The test system of data set [2] is kidneys from ACI rats transplanted into Lewis rats. Format: in vivo.
Experimental: (§1) In vivo studies were conducted using piceatannol obtained from Peninsula Lab. […] We examined the ability of piceatannol/calcineurin mixtures to prolong graft survival. Donor organs from ACI rats were transplanted into Lewis rats.
In other experiments, kidneys from ACI rats were transplanted into Lewis rats. Drug administration continued for an additional seven days after transplant at the same levels. From day 8 through day 60 post-transplant administration continued, albeit with piceatannol reduced to 10 mg/kg/day. Thereafter, drug administration ceased.
Animals were anesthetized. The lower abdomen of the donor was shaved and surgically prepared and a long midline incision was made in the abdominal wall. The left kidney and left ureter, aorta, and vena cava were dissected, and suprarenal and gonadal veins ligated and cut. After ligating the suprarenal aorta and vena cava, a hole made in distal aorta and left kidney was flushed in situ with 3 ml of heparinized cold Euro-Collins' solution. The left kidney and left ureter were removed with an aortic cuff and vena cava patched and kept on ice.
After the lower abdomen of the recipient was shaved and surgically prepared, the recipient animal underwent a left nephrectomy via a long midline incision under inhalation anesthesia, and abdominal aoerta and vena cava were prepared for anastomosis. […]
Data set [3] deals with hearts from ACI rats transplanted into Lewis rats. Kind of data set: Heterotopic heart transplant, graft survival. Format: in vivo, rat. To be noted: at the specified dosages (30 mg/kg piceatannol, 2 mg/kg cyclosporin A).
Experimental: as §1
Prior to transplantation, piceatannol (30 mg/kg) was administered intravenously for three days into one selection of Lewis rats via a catheter placed in the right jugular vein.
At day 3, hearts from ACI rats were heterotopically transplanted into the abdomen of the Lewis rats. […] Following transplantation, fascia and muscle were closed with absorbable suture and skin was closed with nylon.
After surgery animals were placed on a warm pad and observed until they awakened. The animals were then placed in cages in a warm environment with wood chip bedding, and provided rodent chow. To relieve pain, Buprenorphine was also given to the animal. Toxicity in animals was monitored by measuring the blood levels of creatinine and ALT, indicators of kidney and liver function, respectively. Drug administration then continued for an additional seven days after the transplant surgery (and was then discontinued).
In the case of heart transplants, rejection was considered complete when no heart beat was palpable with respect to the transplanted organ. This was confirmed by laparotomy and direct inspection.
Data set [4] has as its system transplanted organ. Kind of data set: In vivo use of piceatannol alone as an immunosuppressive.
The subject of data set [5] is T and B cell activation. Kind of data set: T and B cell activation. As to conditions: both in vitro and in vivo. Format: cell-based.

With `Oc1cc(O)cc(/C=C/c2ccc(O)c(O)c2)c1` [piceatannol, 3,4,3′,5′-tetrahydroxy-trans-stilbene], the “inhibition of Syk kinase” value in data set [1] is recorded as “very effective inhibitor”. Also, in data set [2] (piceatannol 30 then 10 mg/kg/day IV, CsA 2 mg/kg/day IM, day -3 to +60, rejection = serum creatinine over 2 mg/dl or death), the “prolonging kidney allograft survival (in words)” value is on record as “not effective”. The “histological analysis of transplanted kidneys” value in data set [2] (single-agent groups, data not shown) is on record as “signs of acute rejection”. Moreover, the “prolongation of heart graft survival (in words)” value in data set [3] is reported as “only minimal prolongation effect”. In data set [4] (75 mg/kg of body weight per day), the “tolerability / toxicity of piceatannol alone” value is “not well tolerated; also recorded: some toxicity was noted”. The “transplanted organ survival, piceatannol alone” value in data set [4] (in vivo use of piceatannol) was “prolongs transplanted organ survival”. In addition, the “T and B cell activation” value in data set [5] was “inhibits”.
